Assay results taken from patent publication US12709603B2, “Crystalline forms of {2-[3-cyclohexyl-3-(trans-4-propoxy-cyclohexyl)-ureido]-thiazol-5-ylsulfanyl}-acetic acid and uses thereof” (vTv Therapeutics LLC, priority 2020, dated 2026).
Entries after “also recorded” stand apart in the source; their conditions may differ. Blank lines part the entries; values can stand above or below the molecule they belong to.

Experiments:
[1] = Drying of selected materials under vacuum at 45° C., solid form checked by XRPD; format: physicochemical
Method: (§1) XRPD patterns were collected with a PANalytical X'Pert PRO MPD or Empyrean diffractometer using an incident beam of Cu radiation produced using an Optix long, fine-focus source. An elliptically graded multilayer mirror was used to focus Cu Ku X-ray radiation through the specimen and onto the detector. Prior to the analysis, a silicon specimen (NIST SRM 640e) was analyzed to verify the observed position of the Si (111) peak is consistent with the NIST-certified position. A specimen of the sample was sandwiched between 3-μm-thick films and analyzed in transmission geometry. A beam-stop, short antiscatter extension, and antiscatter knife-edge were used to minimize the background generated by air. Soller slits for the incident and diffracted beams were used to minimize broadening from axial divergence. Diffraction patterns were collected using a scanning position-sensitive detector (X'Celerator) located 240 mm from the specimen and Data Collector software v. 5.5.

[2] = Stable form and hydrate screen via slurry-trituration experiments; format: physicochemical; conditions: anh. EtOH, 55° C., 7 d, brown suspension
Method: Slurry triburation experiments target the stable forms, including stable solvates and hydrates.
The slurry-trituration experiments were conducted by stirring solids of Compound I in specified solvents and solvent mixtures at various temperatures for 7 days (elevated temperature) or 14-18 days (ambient and sub-ambient temperatures). A summary of experimental conditions and results is detailed in Table 13.
as §1

[3] = Polymorph screen (evaporation, cooling, slurry, solvent/anti-solvent); format: physicochemical; conditions: EtOAc/HFIPA (36:64), stirred at 60° C. 1 d, FC to ice/water bath, FE w/N2 purge
Source text: Solids of Compound I unless noted otherwise, was used as the starting material. Materials produced in the study were utilized for selected experiments.
Solutions of starting material were allowed to partially evaporate or evaporate to dryness at ambient or elevated temperature from open vials for fast evaporation (FE) or from vials covered with aluminum foil with pin holes for slow evaporation (SE). Prior to evaporation, solutions were filtered at ambient or elevated temperature using 0.2 μm nylon filters.
Solutions of starting material were prepared in specified solvents at elevated temperature using a hot plate for heating. These were typically hot-filtered through a 0.2 μm nylon filter into warm receiving vials. […]
XRPD patterns were collected with a PANalytical X'Pert PRO MPD or Empyrean diffractometer using an incident beam of Cu radiation produced using an Optix long, fine-focus source. […] Prior to the analysis, a silicon specimen (NIST SRM 640e) was analyzed to verify the observed position of the Si (111) peak is consistent with the NIST-certified position. A specimen of the sample was sandwiched between 3-μm-thick films and analyzed in transmission geometry. […]

[4] = biological target: T1, glucokinase (Homo sapiens, UniProt P35557); conditions: cited from earlier work
T1 sequence (P35557 1-465): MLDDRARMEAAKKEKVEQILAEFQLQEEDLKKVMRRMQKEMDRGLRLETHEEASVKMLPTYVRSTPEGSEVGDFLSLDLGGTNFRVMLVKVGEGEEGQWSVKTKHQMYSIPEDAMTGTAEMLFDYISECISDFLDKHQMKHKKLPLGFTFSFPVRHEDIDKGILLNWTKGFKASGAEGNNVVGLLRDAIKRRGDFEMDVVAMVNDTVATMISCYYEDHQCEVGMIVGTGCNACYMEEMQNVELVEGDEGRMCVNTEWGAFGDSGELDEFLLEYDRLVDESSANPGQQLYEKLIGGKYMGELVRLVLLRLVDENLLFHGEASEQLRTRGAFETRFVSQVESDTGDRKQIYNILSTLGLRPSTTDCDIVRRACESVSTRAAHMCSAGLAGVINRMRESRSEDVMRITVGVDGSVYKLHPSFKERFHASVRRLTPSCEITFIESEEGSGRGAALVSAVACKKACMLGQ

[5] = Competitive slurry experiment in acetone among Form A, Form D, Form B and Form E, XRPD; format: physicochemical; conditions: for XRPD Results after competitive slurry of Forms A, D, B, E: acetone pre-saturated with Form A, 7 d, solids analyzed wet
Source text: At each condition, similar amounts of solids from the four forms/materials were slurried in pre-saturated solutions at the examined temperature conditions for 7 days; solids were then isolated and analyzed wet by XRPD.
as §1

Solid form change upon drying / desolvation [1]: converts to Form D upon drying
XRPD Results after drying ([1]; vacuum/45° C./3 d, listed as Compound I Form F): Compound I Form D
Compound: CCCO[C@H]1CC[C@H](N(C(=O)Nc2ncc(SCC(=O)O)s2)C2CCCCC2)CC1 [Form F, {2-[3-cyclohexyl-3-(trans-4-propoxy-cyclohexyl)-ureido]-thiazol-5-ylsulfanyl}-acetic acid]

Solid form change upon drying / desolvation [1]: become disordered upon drying
XRPD Results after drying ([1]; vacuum/45° C./3 d, listed as Compound I Form G): disordered
Compound: CCCO[C@H]1CC[C@H](N(C(=O)Nc2ncc(SCC(=O)O)s2)C2CCCCC2)CC1 [Form G, {2-[3-cyclohexyl-3-(trans-4-propoxy-cyclohexyl)-ureido]-thiazol-5-ylsulfanyl}-acetic acid]

Solid form change upon drying / desolvation [1]: become disordered upon drying
Compound: CCCO[C@H]1CC[C@H](N(C(=O)Nc2ncc(SCC(=O)O)s2)C2CCCCC2)CC1 [Form H, {2-[3-cyclohexyl-3-(trans-4-propoxy-cyclohexyl)-ureido]-thiazol-5-ylsulfanyl}-acetic acid]

XRPD Results after drying ([1]; vacuum/45° C./1 d, listed as Compound I Form I): Compound I Form B
Compound: CCCO[C@H]1CC[C@H](N(C(=O)Nc2ncc(SCC(=O)O)s2)C2CCCCC2)CC1 [Form I, {2-[3-cyclohexyl-3-(trans-4-propoxy-cyclohexyl)-ureido]-thiazol-5-ylsulfanyl}-acetic acid]
Solid form change upon drying / desolvation [1]: converts to Form E or solids similar to Form E upon drying

The remaining lines, values behind:

Compound: CCCO[C@H]1CC[C@H](N(C(=O)Nc2ncc(SCC(=O)O)s2)C2CCCCC2)CC1 [Compound I Form E + minor Form A, {2-[3-cyclohexyl-3-(trans-4-propoxy-cyclohexyl)-ureido]-thiazol-5-ylsulfanyl}-acetic acid]
XRPD Results after drying ([1]; vacuum/45° C./1 d): Compound I Form B +

Compound: CCCO[C@H]1CC[C@H](N(C(=O)Nc2ncc(SCC(=O)O)s2)C2CCCCC2)CC1 [Compound I Material G, {2-[3-cyclohexyl-3-(trans-4-propoxy-cyclohexyl)-ureido]-thiazol-5-ylsulfanyl}-acetic acid]
XRPD Results after drying ([1]; vacuum/45° C./1 d): disordered

Compound: CCCO[C@H]1CC[C@H](N(C(=O)Nc2ncc(SCC(=O)O)s2)C2CCCCC2)CC1 [Compound I, {2-[3-cyclohexyl-3-(trans-4-propoxy-cyclohexyl)-ureido]-thiazol-5-ylsulfanyl}-acetic acid]
XRPD Result after slurry-trituration [2]: decomposed
XRPD Result after polymorph screen experiment [3]: decomposed
Glycemic control ([4]; oral, liver selective glucokinase activator): improves glycemic control
Adverse effects (hypoglycemia, dyslipidemia/increased TG, liver glycogen and TG, loss of efficacy) ([4]; therapeutically relevant doses, compared with other GK activators): does not cause similar adversarial effects; also recorded: may not induce hypoglycemia, dyslipidemia, or pathological increases of glycogen and TG in the liver

Compound: CCCO[C@H]1CC[C@H](N(C(=O)Nc2ncc(SCC(=O)O)s2)C2CCCCC2)CC1 [Form A, {2-[3-cyclohexyl-3-(trans-4-propoxy-cyclohexyl)-ureido]-thiazol-5-ylsulfanyl}-acetic acid]
XRPD Results after competitive slurry of Forms A, D, B, E ([5]; 2-8° C.): Form A
XRPD Results after competitive slurry of Forms A, D, B, E ([5]; 45° C.): Form A
XRPD Results after competitive slurry of Forms A, D, B, E ([5]; RT): Form A
Relative stability among anhydrous forms A, B, D, E ([5]; within 2-8° C. to 45° C., based on competitive slurries): likely the most stable form

Compound: CCCO[C@H]1CC[C@H](N(C(=O)Nc2ncc(SCC(=O)O)s2)C2CCCCC2)CC1 [Form C, {2-[3-cyclohexyl-3-(trans-4-propoxy-cyclohexyl)-ureido]-thiazol-5-ylsulfanyl}-acetic acid]
Solid form change upon drying / desolvation [1]: desolvates into Form D
XRPD Results after drying ([1]; vacuum/45° C./1 h): Compound I Form D
XRPD Results after drying ([1]; vacuum/45° C./1 d, listed as Compound I Form C): Compound I Form D ±
